The numbers were not newly measured in patent publication US20060099233A1, “Granular formulation of neem seed extract and its process thereof” (E.I.D. Parry (India) Limited, priority 2004, published 2006), which cites them from elsewhere.

For this data set the following is noted: 25 days at 29±1° C.

Each structure is given as a SMILES string. Where two headings read alike, the source gives them in different places.

Regarding `C/C=C(\C)C(=O)O[C@H]1C[C@@H](OC(C)=O)[C@@]2(C(=O)OC)CO[C@H]3[C@@H](O)[C@@](C)([C@]45O[C@@]4(C)[C@@H]4C[C@H]5O[C@@H]5OC=C[C@@]54O)[C@H]4[C@]1(CO[C@]4(O)C(=O)OC)[C@@H]32` [azadirachtin A], the “degradation of azadirachtin A” value reads like this: (in ethanol and water) “about 85%”; (in methanol and acetone) 50%; (in methylene chloride, carbon tetrachloride and chloroform) 75-80%.
